Assay results: patent US9999616B2 (ZENITH EPIGENETICS LTD., priority 2013, dated 2018)

Experiments:
[1] = test system: Human AML MV-4-11 cells; assay: Inhibition of cell proliferation in MV4-11 cells (CellTiter Aqueous One); type: cell-based; conditions: for IC50: MV4-11, 72 h; for Cell Proliferation activity: 72 h
How it was run: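 MV4-11 cells, 5×10^4 per well in IMDM with 10% FBS, were exposed to increasing compound concentrations or 0.1% DMSO for 72 h at 37 °C in triplicate. Viability was read by MTS (CellTiter Aqueous One) absorbance at 490 nm after 3-4 h. IC50 was derived from background-corrected signal relative to DMSO.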

[2] = test system: hIL-6 mRNA; assay: Inhibition of hIL-6 mRNA transcription in LPS-stimulated U937 macrophages; type: cell-based, Human; conditions: Homo sapiens, U-937, PMA-differentiated U937 cells, 1 h pretreatment, LPS 3 h, read-out: IL-6 activity
How it was run: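 PMA-differentiated U937 macrophages (60 ng/mL PMA, 3 days) pretreated 1 h with compound in 0.1% DMSO, then stimulated with 1 ug/mL E. coli LPS for 3 h at 37° C. IL-6 mRNA quantified by one-step TaqMan qRT-PCR, normalized to cyclophilin; fold expression relative to control, triplicate wells.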

[3] = test system: c-myc in Human AML MV4-11 cells; assay: Inhibition of cMYC expression (mRNA, real-time PCR) in MV4-11 cells; type: cell-based; conditions: 3 h treatment, cMYC mRNA by real-time PCR
How it was run: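 MV4-11 cells in IMDM with 10% FBS were treated with increasing compound concentrations (DMSO 0.1%) for 3 h at 37 °C, in triplicate. Isolated mRNA was quantified by one-step TaqMan RT-qPCR, cMYC Ct normalized to cyclophilin, and fold expression given relative to DMSO control.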

[4] = molecular target: Brd4 bromodomain 1 (BRD4(1)) (Homo sapiens, UniProt O60885); assay: Inhibition of tetra-acetylated histone H4 binding to Brd4 bromodomain 1, measured by FRET (HTRF); design: made in house; host or cells: E. coli BL21(DE3); conditions: 2 h at room temperature
How it was run: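 N-terminally His-tagged bromodomain (200 nM), expressed in E. coli and purified by Ni affinity and size exclusion, was incubated with biotinylated tetra-acetylated H4 peptide (25-50 nM), Eu-cryptate streptavidin and XL665 anti-His in HEPES pH 7.4 buffer with 0.2% DMSO. Reactions ran 2 h at room temperature. IC50 came from the 665/620 nm fluorescence decrease.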

Row | SMILES | IC50 [1] [nM] | IC50 [2] [nM] | IC50 [3] [nM] | IC50 [4] [nM] | Cell Proliferation activity [1]
1 | Cc1nc2c(Oc3ccccc3)cc(-c3c(C)noc3C)cc2[nH]1 [Example Compound 148, 3,5-dimethyl-4-(2-methyl-4-phenoxy-1H-benzo[d]imidazol-6-yl)isoxazole] | 300 to 3000 | ≤ 300 | ≤ 300 | ≤ 300 | –
2 | Cc1nc2c(-c3csnc3C)cc(-c3csnc3C)cc2[nH]1 [Example Compound 139, 4,4′-(2-methyl-1H-benzo[d]imidazole-4,6-diyl)bis(3-methylisothiazole)] | – | 300 to 3000 | 3000 to 30000 | 300 to 3000 | Not active
3 | Cc1nc2c(Oc3cccnc3C)cc(-c3c(C)noc3C)cc2[nH]1 [Example Compound 155, 3,5-dimethyl-4-(2-methyl-4-((2-methylpyridin-3-yl)oxy)-1H-benzo[d]imidazol-6-yl)isoxazole] | 300 to 3000 | 300 to 3000 | 300 to 3000 | ≤ 300 | –
4 | Cc1nc2c(N3CCC3=O)cc(-c3c(C)noc3C)cc2[nH]1 [Example Compound 147, 1-(6-(3,5-dimethyl-isoxazol-4-yl)-2-methyl-1H-benzo[d]imidazol-4-yl)azetidin-2-one] | – | 300 to 3000 | 300 to 3000 | 300 to 3000 | Not active
5 | Cc1nc2c(CCc3ccccc3)cc(-c3c(C)noc3C)cc2[nH]1 [Example Compound 161, 3,5-dimethyl-4-(2-methyl-4-phenethyl-1H-benzo[d]imidazol-6-yl)isoxazole] | 3000 to 30000 | 300 to 3000 | 300 to 3000 | ≤ 300 | –
6 | Cc1nc2c(-c3cc(F)ccc3C(F)(F)F)cc(-c3c(C)noc3C)cc2[nH]1 [Example Compound 80, 4-(4-(5-fluoro-2-(trifluoro-methyl)phenyl)-2-methyl-1H-benzo[d]imidazol-6-yl)-3,5-dimethyl isoxazole] | 300 to 3000 | 300 to 3000 | ≤ 300 | ≤ 300 | –
7 | Cc1ccncc1-c1cc(-c2c(C)noc2C)cc2cn[nH]c12 [Example Compound 119, 3,5-dimethyl-4-(7-(4-methyl-pyridin-3-yl)-1H-indazol-5-yl)isoxazole] | 300 to 3000 | ≤ 300 | 300 to 3000 | ≤ 300 | –
8 | Cc1nc2c(-c3cc(C(N)=O)ccc3C)cc(-c3c(C)noc3C)cc2[nH]1 [Example Compound 74, 3-(6-(3,5-dimethyl-isoxazol-4-yl)-2-methyl-1H-benzo[d]imidazol-4-yl)-4-methyl benzamide] | 300 to 3000 | 300 to 3000 | 300 to 3000 | ≤ 300 | –
9 | COc1ccc(F)cc1-c1cc(-c2c(C)noc2C)cc2[nH]c(C)nc12 [Example Compound 112, 4-(4-(5-fluoro-2-methoxy-phenyl)-2-methyl-1H-benzo[d]imidazol-6-yl)-3,5-dimethyl-isoxazole] | 300 to 3000 | ≤ 300 | ≤ 300 | ≤ 300 | –
10 | COc1cccc(Nc2cc(-c3c(C)noc3C)cc3[nH]cnc23)c1 [Example Compound 33, 6-(3,5-dimethyl-isoxazol-4-yl)-N-(3-methoxy-phenyl)-1H-benzo[d] imidazol-4-amine] | 300 to 3000 | 300 to 3000 | 300 to 3000 | ≤ 300 | –
11 | Cc1nc2c(-c3cccc(C#N)c3C)cc(-c3c(C)noc3C)cc2[nH]1 [Example Compound 123, 3-(6-(3,5-dimethyl-isoxazol-4-yl)-2-methyl-1H-benzo[d]imidazol-4-yl)-2-methyl-benzonitrile] | 300 to 3000 | ≤ 300 | ≤ 300 | ≤ 300 | –
12 | Cc1noc(C)c1-c1cc(-c2cccc(C#N)c2C)c2nc(N3CCC(N)CC3)[nH]c2c1 [Example Compound 209, 3-(2-(4-amino-piperidin-1-yl)-6-(3,5-dimethyl-isoxazol-4-yl)-1H-benzo[d]imidazol-4-yl)-2-methyl benzonitrile] | ≤ 300 | 300 to 3000 | 300 to 3000 | ≤ 300 | –
13 | COc1ccc(Nc2cc(-c3c(C)noc3C)cc3[nH]cnc23)cc1 [Example Compound 25, 6-(3,5-dimethylisoxazol-4-yl)-N-(4-methoxyphenyl)-1H-benzo[d]imidazol-4-amine] | 300 to 3000 | 300 to 3000 | 300 to 3000 | 300 to 3000 | –
14 | COc1ncc(F)cc1-c1cc(-c2c(C)noc2C)cc2[nH]c(C)nc12 [Example Compound 131, 4-(4-(5-fluoro-2-methoxy-pyridin-3-yl)-2-methyl-1H-benzo[d]imidazol-6-yl)-3,5-dimethyl isoxazole] | 300 to 3000 | 300 to 3000 | 300 to 3000 | 300 to 3000 | –
15 | Cc1noc(C)c1-c1cc(-c2cccc(C#N)c2C)c2nc(N3CCOCC3)[nH]c2c1 [Example Compound 203, 3-(6-(3,5-dimethyl-isoxazol-4-yl)-2-morpholino-1H-benzo[d]imidazol-4-yl)-2-methyl benzonitrile] | 300 to 3000 | ≤ 300 | ≤ 300 | ≤ 300 | –
16 | Cc1nc2c(-c3ccc(F)c(F)c3C)cc(-c3c(C)noc3C)cc2[nH]1 [Example Compound 132, 4-(4-(3,4-difluoro-2-methyl-phenyl)-2-methyl-1H-benzo[d]imidazol-6-yl)-3,5-dimethyl isoxazole] | 300 to 3000 | 300 to 3000 | 300 to 3000 | 300 to 3000 | –

More lines, main results first:

Row | IC50 [1] [nM] | IC50 [2] [nM] | IC50 [3] [nM] | IC50 [4] [nM] | SMILES | Cell Proliferation activity [1]
17 | 300 to 3000 | 300 to 3000 | 300 to 3000 | ≤ 300 | Cc1noc(C)c1-c1cc(-c2c(C)noc2C)c2nn(C)cc2c1 [Example Compound 55, 4,4′-(2-methyl-2H-indazole-5,7-diyl)bis(3,5-dimethylisoxazole)] | –
18 | 300 to 3000 | ≤ 300 | 300 to 3000 | ≤ 300 | Cc1noc(C)c1-c1cc(-c2ccnn2C)c2nc[nH]c2c1 [Example Compound 16, 3,5-dimethyl-4-(4-(1-methyl-1H-pyrazol-5-yl)-1H-benzo[d]imidazol-6-yl)isoxazole] | –
19 | 300 to 3000 | ≤ 300 | ≤ 300 | ≤ 300 | Cc1nc2c(-c3cc(Cl)ccc3C)cc(-c3c(C)noc3C)cc2[nH]1 [Example Compound 105, 4-(4-(5-chloro-2-methyl-phenyl)-2-methyl-1H-benzo[d]imidazol-6-yl)-3,5-dimethyl isoxazole] | –
20 | ≤ 300 | ≤ 300 | ≤ 300 | ≤ 300 | Cc1noc(C)c1-c1cc(-c2c(C)noc2C)c2nc(N3CCN(C)CC3)[nH]c2c1 [Example Compound 231, 4,4′-(2-(4-methyl-piperazin-1-yl)-1H-benzo[d]imidazole-4,6-diyl) bis(3,5-dimethylisoxazole)] | –
21 | 300 to 3000 | 300 to 3000 | 300 to 3000 | ≤ 300 | Cc1nc2c(-c3c(C)cnn3C)cc(-c3c(C)noc3C)cc2[nH]1 [Example Compound 169, 4-(4-(1,4-dimethyl-1H-pyrazol-5-yl)-2-methyl-1H-benzo[d]imidazol-6-yl)-3,5-dimethyl isoxazole] | –
22 | 300 to 3000 | ≤ 300 | ≤ 300 | ≤ 300 | Cc1noc(C)c1-c1cc(-c2c(C)nn(C)c2C)c2c(c1)ncn2C [Example Compound 182, 3,5-dimethyl-4-(1-methyl-7-(1,3,5-trimethyl-1H-pyrazol-4-yl)-1H-benzo[d]imidazol-5-yl)isoxazole] | –
23 | ≤ 300 | ≤ 300 | ≤ 300 | ≤ 300 | Cc1n[nH]c(C)c1-c1cc(-c2c(C)noc2C)cc2[nH]nc(C)c12 [Example Compound 180, 4-(4-(3,5-dimethyl-1H-pyrazol-4-yl)-3-methyl-1H-indazol-6-yl)-3,5-dimethylisoxazole] | –
24 | 300 to 3000 | 300 to 3000 | 300 to 3000 | ≤ 300 | Cc1noc(C)c1-c1cc(-c2c(C)noc2C)c2[nH]c(CC(F)(F)F)nc2c1 [Example Compound 76, 4,4′-(2-(2,2,2-trifluoro-ethyl)-1H-benzo[d]imidazole-5,7-diyl)bis(3,5-dimethylisoxazole)] | –
25 | 300 to 3000 | 300 to 3000 | 300 to 3000 | ≤ 300 | COc1ncccc1-c1cc(-c2c(C)noc2C)cc2[nH]c(C)nc12 [Example Compound 118, 4-(4-(2-methoxy-pyridin-3-yl)-2-methyl-1H-benzo[d]imidazol-6-yl)-3,5-dimethyl isoxazole] | –
26 | 300 to 3000 | ≤ 300 | 300 to 3000 | ≤ 300 | Cc1ncsc1-c1cc(-c2c(C)noc2C)cc2[nH]cnc12 [Example Compound 26, 3,5-dimethyl-4-(4-(4-methylthiazol-5-yl)-1H-benzo[d]imidazol-6-yl)isoxazole] | –
